Test results published in US10322112B2, “Compound combinations for attenuation of bacterial virulence” (priority 2016, dated 2019).

How the values were obtained:
P. aeruginosa (PAO1) = experiment: Rhamnolipid assay; format: cell-based, Pseudomonas aeruginosa; settings: MOPS Glutamate and Glucose media, complete or iron/phosphate depleted, 17 h, 100 μM (compounds 1, 2, 3), 25 μM (compound 4), relative to DMSO
Description: A. Pyocyanin Assay Protocol. The amount of pyocyanin in P. aeruginosa culture supernatants was measured following a reported protocol (O'Loughlin et al., 2013) with modifications. A 10 mL overnight culture of P. aeruginosa PAO1 was grown for 16 h. DMSO stock solutions of test compounds (20 mM) were prepared, and 10 μL or 5 μL aliquots were added to sterile 15 mL borosilicate glass test tubes. An inoculating culture was prepared by diluting the overnight culture 1:100 into freshly prepared assay medium (see above), and 2 mL aliquots of this subculture were added to each test tube (0.5% DMSO, final). The cultures were grown for 17 h, and the final cell density measured by reading OD600. Relative pyocyanin levels were measured by first pelleting 1.5 mL of well-mixed culture at 4,000 g for 10 min, transferring 200 μL of the resulting supernatant to a clear, plastic 96-well microtiter plate, and reading absorbance at 695 nm. Media background absorbance (measured from a “no bacteria” control) was subtracted, the resulting values growth normalized by dividing by the final OD600378, and the data plotted relative to a DMSO-treated positive control. B. Rhamnolipid Assay Protocol. Rhamnolipid was quantified following a reported protocol (Koch et al., 1991) with modifications. Assay cultures were prepared and grown in an identical manner to the pyocyanin assay above. Aliquots of the final culture supernatant (1 mL) were transferred to 1 dram glass vials and extracted twice with 1 mL diethyl ether. The pooled organic fractions were evaporated to dryness, and the resulting residue reconstituted in 200 μL de-ionized water. […] After briefly cooling to room temperature, 200 μL of the resulting yellow to yellow-orange solution was transferred to a clear 96-well microtiter plate, and the absorbance at 421 nm measured. Media background absorbance (measured from a “no bacteria” control) was subtracted, the resulting values growth normalized by dividing by the final OD600, and the data plotted relative to a DMSO-treated positive control. […] The amount of elastase B in P. aeruginosa culture supernatants was measured following a reported protocol (Geske et al., 2007) with modifications. […] To quantify elastase B activity, the undigested elastin was pelleted by centrifugation of the assay plate at 1,500 g for 10 min, after which 100 μL of the supernatant was transferred to a new, clear 96-well plate, and the absorbance at 490 nm measured. Media background absorbance (measured from a “no bacteria” control) was subtracted, the resulting values growth normalized by dividing by the final OD600, and the data plotted relative to a DMSO-treated positive control.

RhlR = target: T1, RhlR (Pseudomonas aeruginosa, UniProt P54292); experiment: E. coli reporter gene primary agonism assay, RhlR; format: cell-based; settings: compounds at 100 mm; 900 mm BHL = 100%; error ±10%; selected data reproduced from Welsh et al., 2015
T1 construct: expressed in transfected cells; host or cells: E. coli JLD271
T1 sequence (P54292 whole entry): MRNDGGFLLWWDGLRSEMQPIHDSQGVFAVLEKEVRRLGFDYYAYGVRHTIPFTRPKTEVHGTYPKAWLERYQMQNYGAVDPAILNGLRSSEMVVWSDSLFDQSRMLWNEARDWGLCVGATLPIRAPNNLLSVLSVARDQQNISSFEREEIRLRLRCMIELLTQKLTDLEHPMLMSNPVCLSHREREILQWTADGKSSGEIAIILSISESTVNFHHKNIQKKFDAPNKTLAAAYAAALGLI
Description: Percent agonism of a given non-native inducer in a given bacterium and QS system receptor is measured with resepct to the maximum level of agonism (activation) by the native ligand of that receptor in the given bacterium. Percent antagonism is measured in competitive assays. The QS system of interest is activated to 100% with added or endogenous native ligand and the % antagonism of the non-native inducer is assessed with respect to 100% activation by the native inducer. The native ligand which induces LasR is OdDHL, which induces RhlR is BHL and which induces PqsR is PQS. As described herein and in cited references, assays for assessment of % agonism or % atangonism may be performed in E. coli systems (heterologous) or in the bacterium of interest, e.g., Pseudomonas. Dependent upon the assay system employed native ligand may be endogenously present or it may be exogenously supplied to the assay system. […] In antagonism assays using the native strains with functional QS systems, e.g., those of P. aeruginosa, endogenous native ligand is made in the system, so no native ligand is added. In native strains having one or more non-functional QS systems (mutant strains), e.g., P. aeruginosa mutants with non-functional QS systems, native ligand is added at about 10-100× the EC50 of the native ligand. In the agonism assay, native ligand is added as a control. Details of the assays are provided herein in Example 9 and in references cited in Example 9.

SMILES: O=C(N[C@H]1CCOC1=O)C1CCCC1 [compound 3]
- rhamnolipid production, single compound screens (P. aeruginosa (PAO1)): induced additional rhamnolipid and elastase B production
- Activation [%] RhlR (RhlR): 91%
